Laboratory results taken from patent US20250171437A1 (Agios Pharmaceuticals,Inc., priority 2022, published 2025).

Molecular target: T1, human PAH with the R408W mutation (A375 R408W cells) (Homo sapiens, UniProt P00439, R408W)
T1 construct: expressed in transfected cells
T1 sequence (P00439 1-452 R408W): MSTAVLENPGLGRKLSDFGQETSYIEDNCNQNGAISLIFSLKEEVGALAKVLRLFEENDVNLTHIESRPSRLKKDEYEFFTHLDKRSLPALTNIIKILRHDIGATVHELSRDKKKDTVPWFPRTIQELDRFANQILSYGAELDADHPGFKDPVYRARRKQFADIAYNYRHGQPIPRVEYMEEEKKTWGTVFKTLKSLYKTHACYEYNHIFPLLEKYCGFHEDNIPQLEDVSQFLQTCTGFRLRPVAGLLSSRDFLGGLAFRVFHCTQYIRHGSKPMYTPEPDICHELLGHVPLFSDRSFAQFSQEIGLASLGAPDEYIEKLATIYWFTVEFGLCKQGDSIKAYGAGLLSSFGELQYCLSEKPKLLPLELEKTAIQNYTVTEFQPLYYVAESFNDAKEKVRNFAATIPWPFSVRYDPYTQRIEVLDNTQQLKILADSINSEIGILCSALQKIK
Test: Cell Based Phenylalanine Flux Assay
Conditions: A375 R408W cells; 24 hrs with compound, then 20 μM sepiapterin and 800 μM 13C9,15N-Phenylalanine for 4 hours; 13C-Tyrosine by LC-MS; average where tested multiple times
Method in brief: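 LC-MS quantitation of 13C-tyrosine in media gave AC50 values. Stable A375 R408W PAH cells were preincubated 24 h with compound, then fed 800 μM labelled Phe plus 20 μM sepiapterin for 4 h. Dose curves were 10-point, tested in duplicate, averaged over repeat runs.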

SMILES	AC50
Cc1ccc2nc([C@H]3c4nc[nH]c4CCN3C(=O)c3nnc(-c4cnn(C(F)F)c4)o3)oc2c1 [Example 682, (R)-(5-(1-(difluoromethyl)-1H-pyrazol-4-yl)-1,3,4-oxadiazol-2-yl)(4-(6-methylbenzo[d]oxazol-2-yl)-6,7-dihydro-1H-imidazo[4,5-c]pyridin-5(4H)-yl)methanone]	≥ 5000 nM
Cn1nc(C(F)(F)F)nc1C(=O)N1CCc2[nH]cnc2[C@H]1c1nc2ccccc2o1 [Example 683, (S)-(4-(benzo[d]oxazol-2-yl)-6,7-dihydro-1H-imidazo[4,5-c]pyridin-5(4H)-yl)(1-methyl-3-(trifluoromethyl)-1H-1,2,4-triazol-5-yl)methanone]	1000 to 5000 nM
Cn1nc(C(F)(F)F)nc1C(=O)N1CCc2[nH]cnc2[C@@H]1c1nc2ccccc2o1 [Example 684, (R)-(4-(benzo[d]oxazol-2-yl)-6,7-dihydro-1H-imidazo[4,5-c]pyridin-5(4H)-yl)(1-methyl-3-(trifluoromethyl)-1H-1,2,4-triazol-5-yl)methanone]	1000 to 5000 nM
Cc1cccc2nc([C@@H]3c4nc[nH]c4CCN3C(=O)c3nc(C(F)(F)F)nn3C)oc12 [Example 685, (S)-(1-methyl-3-(trifluoromethyl)-1H-1,2,4-triazol-5-yl)(4-(7-methylbenzo[d]oxazol-2-yl)-6,7-dihydro-1H-imidazo[4,5-c]pyridin-5(4H)-yl)methanone]	500 to 1000 nM
Cc1cccc2nc([C@H]3c4nc[nH]c4CCN3C(=O)c3nc(C(F)(F)F)nn3C)oc12 [Example 686, (R)-(1-methyl-3-(trifluoromethyl)-1H-1,2,4-triazol-5-yl)(4-(7-methylbenzo[d]oxazol-2-yl)-6,7-dihydro-1H-imidazo[4,5-c]pyridin-5(4H)-yl)methanone]	1000 to 5000 nM
Cn1cncc1-c1nc(C(F)F)c(C(=O)N2CCc3[nH]cnc3[C@H]2c2nc3cc(F)ccc3o2)o1 [Example 687, (S)-(4-(difluoromethyl)-2-(1-methyl-1H-imidazol-5-yl)oxazol-5-yl)(4-(5-fluorobenzo[d]oxazol-2-yl)-6,7-dihydro-1H-imidazo[4,5-c]pyridin-5(4H)-yl)methanone]	500 to 1000 nM
Cn1cncc1-c1nc(C(F)F)c(C(=O)N2CCc3[nH]cnc3[C@@H]2c2nc3cc(F)ccc3o2)o1 [Example 688, (R)-(4-(difluoromethyl)-2-(1-methyl-1H-imidazol-5-yl)oxazol-5-yl)(4-(5-fluorobenzo[d]oxazol-2-yl)-6,7-dihydro-1H-imidazo[4,5-c]pyridin-5(4H)-yl)methanone]	1000 to 5000 nM
O=C(c1oc(C2(O)CCC2)nc1C(F)F)N1CCc2[nH]cnc2[C@H]1c1nc2cc(F)ccc2o1 [Example 689, (S)-(4-(difluoromethyl)-2-(1-hydroxycyclobutyl)oxazol-5-yl)(4-(5-fluorobenzo[d]oxazol-2-yl)-6,7-dihydro-1H-imidazo[4,5-c]pyridin-5(4H)-yl)methanone]	≤ 500 nM
O=C(c1oc(C2(O)CCC2)nc1C(F)F)N1CCc2[nH]cnc2[C@@H]1c1nc2cc(F)ccc2o1 [Example 690, (R)-(4-(difluoromethyl)-2-(1-hydroxycyclobutyl)oxazol-5-yl)(4-(5-fluorobenzo[d]oxazol-2-yl)-6,7-dihydro-1H-imidazo[4,5-c]pyridin-5(4H)-yl)methanone]	1000 to 5000 nM
Cn1cncc1-c1nc(C(F)F)c(C(=O)N2CCc3[nH]cnc3[C@@H]2c2nc3cccc(F)c3o2)o1 [Example 691, (R)-(4-(difluoromethyl)-2-(1-methyl-1H-imidazol-5-yl)oxazol-5-yl)(4-(7-fluorobenzo[d]oxazol-2-yl)-6,7-dihydro-1H-imidazo[4,5-c]pyridin-5(4H)-yl)methanone]	500 to 1000 nM
Cn1cncc1-c1nc(C(F)F)c(C(=O)N2CCc3[nH]cnc3[C@H]2c2nc3cccc(F)c3o2)o1 [Example 692, (S)-(4-(difluoromethyl)-2-(1-methyl-1H-imidazol-5-yl)oxazol-5-yl)(4-(7-fluorobenzo[d]oxazol-2-yl)-6,7-dihydro-1H-imidazo[4,5-c]pyridin-5(4H)-yl)methanone]	≤ 500 nM
O=C(c1oc(-c2cnccn2)nc1C(F)F)N1CCc2[nH]cnc2[C@H]1c1nc2cccc(F)c2o1 [Example 693, (S)-(4-(difluoromethyl)-2-(pyrazin-2-yl)oxazol-5-yl)(4-(7-fluorobenzo[d]oxazol-2-yl)-6,7-dihydro-1H-imidazo[4,5-c]pyridin-5(4H)-yl)methanone]	≤ 500 nM
O=C(c1oc(-c2cnccn2)nc1C(F)F)N1CCc2[nH]cnc2[C@@H]1c1nc2cccc(F)c2o1 [Example 694, (R)-(4-(difluoromethyl)-2-(pyrazin-2-yl)oxazol-5-yl)(4-(7-fluorobenzo[d]oxazol-2-yl)-6,7-dihydro-1H-imidazo[4,5-c]pyridin-5(4H)-yl)methanone]	≤ 500 nM
Cc1ccc2oc([C@@H]3c4nc[nH]c4CCN3C(=O)c3nnc(-c4ccn(C(F)F)n4)o3)nc2c1 [Example 695, (S)-(5-(1-(difluoromethyl)-1H-pyrazol-3-yl)-1,3,4-oxadiazol-2-yl)(4-(5-methylbenzo[d]oxazol-2-yl)-6,7-dihydro-1H-imidazo[4,5-c]pyridin-5(4H)-yl)methanone]	≤ 500 nM

Further lines, results first:

AC50	SMILES
1000 to 5000 nM	Cc1ccc2oc([C@H]3c4nc[nH]c4CCN3C(=O)c3nnc(-c4ccn(C(F)F)n4)o3)nc2c1 [Example 696, (R)-(5-(1-(difluoromethyl)-1H-pyrazol-3-yl)-1,3,4-oxadiazol-2-yl)(4-(5-methylbenzo[d]oxazol-2-yl)-6,7-dihydro-1H-imidazo[4,5-c]pyridin-5(4H)-yl)methanone]
500 to 1000 nM	COc1cccc2nc([C@@H]3c4nc[nH]c4CCN3C(=O)c3nc(C(F)(F)F)nn3C)oc12 [Example 697, (S)-(4-(7-methoxybenzo[d]oxazol-2-yl)-6,7-dihydro-1H-imidazo[4,5-c]pyridin-5(4H)-yl)(1-methyl-3-(trifluoromethyl)-1H-1,2,4-triazol-5-yl)methanone]
1000 to 5000 nM	COc1cccc2nc([C@H]3c4nc[nH]c4CCN3C(=O)c3nc(C(F)(F)F)nn3C)oc12 [Example 698, (R)-(4-(7-methoxybenzo[d]oxazol-2-yl)-6,7-dihydro-1H-imidazo[4,5-c]pyridin-5(4H)-yl)(1-methyl-3-(trifluoromethyl)-1H-1,2,4-triazol-5-yl)methanone]
1000 to 5000 nM	O=C(c1cnn2cc(N3CCC(O)CC3)ccc12)N1CCc2[nH]cnc2[C@H]1c1nc2cc(F)cc(F)c2o1 [Example 699, (S)-(4-(5,7-difluorobenzo[d]oxazol-2-yl)-6,7-dihydro-1H-imidazo[4,5-c]pyridin-5(4H)-yl)(6-(4-hydroxypiperidin-1-yl)pyrazolo[1,5-a]pyridin-3-yl)methanone]
≥ 5000 nM	O=C(c1cnn2cc(N3CCC(O)CC3)ccc12)N1CCc2[nH]cnc2[C@@H]1c1nc2cc(F)cc(F)c2o1 [Example 700, (R)-(4-(5,7-difluorobenzo[d]oxazol-2-yl)-6,7-dihydro-1H-imidazo[4,5-c]pyridin-5(4H)-yl)(6-(4-hydroxypiperidin-1-yl)pyrazolo[1,5-a]pyridin-3-yl)methanone]
≤ 500 nM	Cc1cccc2oc([C@@H]3c4nc[nH]c4CCN3C(=O)c3cnn4cc(N5CCC(O)CC5)ccc34)nc12 [Example 701, (S)-(6-(4-hydroxypiperidin-1-yl)pyrazolo[1,5-a]pyridin-3-yl)(4-(4-methylbenzo[d]oxazol-2-yl)-6,7-dihydro-1H-imidazo[4,5-c]pyridin-5(4H)-yl)methanone]
≥ 5000 nM	Cc1cccc2oc([C@H]3c4nc[nH]c4CCN3C(=O)c3cnn4cc(N5CCC(O)CC5)ccc34)nc12 [Example 702, (R)-(6-(4-hydroxypiperidin-1-yl)pyrazolo[1,5-a]pyridin-3-yl)(4-(4-methylbenzo[d]oxazol-2-yl)-6,7-dihydro-1H-imidazo[4,5-c]pyridin-5(4H)-yl)methanone]
500 to 1000 nM	Cc1ccc2nc([C@@H]3c4nc[nH]c4CCN3C(=O)c3nnc(-c4ccn(C(F)F)n4)o3)oc2c1 [Example 703, (S)-(5-(1-(difluoromethyl)-1H-pyrazol-3-yl)-1,3,4-oxadiazol-2-yl)(4-(6-methylbenzo[d]oxazol-2-yl)-6,7-dihydro-1H-imidazo[4,5-c]pyridin-5(4H)-yl)methanone]
1000 to 5000 nM	Cc1ccc2nc([C@H]3c4nc[nH]c4CCN3C(=O)c3nnc(-c4ccn(C(F)F)n4)o3)oc2c1 [Example 704, (R)-(5-(1-(difluoromethyl)-1H-pyrazol-3-yl)-1,3,4-oxadiazol-2-yl)(4-(6-methylbenzo[d]oxazol-2-yl)-6,7-dihydro-1H-imidazo[4,5-c]pyridin-5(4H)-yl)methanone]
≤ 500 nM	CC(C)n1ncnc1C(=O)N1CCc2[nH]cnc2[C@H]1c1nc2ccccc2o1 [Example 705, (S)-(4-(benzo[d]oxazol-2-yl)-6,7-dihydro-1H-imidazo[4,5-c]pyridin-5(4H)-yl)(1-isopropyl-1H-1,2,4-triazol-5-yl)methanone]
500 to 1000 nM	CC(C)n1ncnc1C(=O)N1CCc2[nH]cnc2[C@@H]1c1nc2ccccc2o1 [Example 706, (R)-(4-(benzo[d]oxazol-2-yl)-6,7-dihydro-1H-imidazo[4,5-c]pyridin-5(4H)-yl)(1-isopropyl-1H-1,2,4-triazol-5-yl)methanone]
